In paper PMC12410356 (International Journal for Parasitology: Drugs and Drug …, 2025):

Tests used:
[1] = system: E. multilocularis metacestode vesicles; assay: Phosphoglucose isomerase (PGI) release assay (damage-marker release) on metacestode vesicles; assay type: cell-based, Echinococcus multilocularis; conditions: 10 μM; for PGI d5 (relative PGI release): 5 days; for PGI d12 (relative PGI release): 12 days
[2] = system: E. multilocularis metacestode vesicles; assay: Metacestode vesicle viability assay (ATP, CellTiter-Glo); assay type: cell-based, Echinococcus multilocularis; conditions: 10 μM, 12 days
Procedure: Viability was assessed after 12 days using the same metacestode vesicles as for the PGI release assay. Triton X-100 was added to each well to a final concentration of 0.1 %. Subsequently the metacestode vesicles were broken mechanically and 50 μL of the supernatant was mixed with 50 μL of CellTiter-Glo® buffer (Promega, Dübendorf, Switzerland). Measurements were performed on a HIDEX Sense microplate reader.

[3] = overview screen, singlets, relative to 0.1 % Triton X-100, DMSO subtracted
[4] = overview screen, singlets, relative to DMSO control
[5] = confirmation screen, triplicates, mean

SMILES	PGI d5 (relative PGI release) [1, 3] [%]	PGI d12 (relative PGI release) [1, 3] [%]	Viability d12 (relative viability) [2, 4] [%]	PGI d5 (relative PGI release) [1, 5] [%]	PGI d12 (relative PGI release) [1, 5] [%]	Viability d12 (relative viability) [2, 5] [%]
CN(C/C=C/C#CC(C)(C)C)Cc1cccc2ccccc12 [MMV1634359]	-1.48	-21.017	186.198			
O=C(/C=C\n1cnc(-c2cc(C(F)(F)F)cc(C(F)(F)F)c2)n1)NNc1ccccn1 [MMV1580493]	1.061	0.9356	159.076			
N[C@H](CCC(=O)N[C@@H](Cc1c[nH]c2ccccc12)C(=O)O)C(=O)O [MMV1581033]	0.0006202	-0.6563	121.646			
O=C1c2cccc3cccc(c23)C(=O)N1CC1CO1 (stereo not drawn) [MMV1634360]	-2.544	17.7299	25.8841			
O=C1C=C(c2ccccc2)S(=O)(=O)c2ccccc21 [MMV1006203]	0.2239	0.7153	120.957			
O=c1oc2ccc(Br)cc2cc1CSc1ncc[nH]1 [MMV1782105]	1.562	-17.9407	107.746			
COc1cc(Cc2cnc(N)nc2N)cc(OC)c1OC [MMV000028]	-3.0237	-24.4435	71.724			
O=c1cc(Nc2ccc3ccccc3c2)[nH]c(=O)[nH]1 [MMV1581546]	-1.553	-12.1764	58.2809			
O=[N+]([O-])c1cn(Cc2nc(O)nc(O)c2Br)cn1 [MMV1579777]	-0.845	-7.383	93.1599			
CCOC(=O)/C=C/[C@H](C[C@@H]1CCNC1=O)NC(=O)[C@H](CC)n1cccc(NC(=O)c2cc(C)on2)c1=O [MMV1782112]	0.1675	-19.6518	109.382			
COc1cc(NC(=O)CN2C(=O)NC(c3ccccc3)(c3ccccc3)C2=O)cc(OC)c1 [MMV1578572]	-1.463	-23.3736	61.4538			
O=C(c1cc(O)nc2ccccc12)N1CCN(c2ccccc2)CC1 [MMV596723]	0.1357	-19.4413	136.964			
N#CCN1C(=O)COc2cc(F)c(N3C(=O)c4ccccc4C3=O)cc21 [MMV1579785]	-1.9012	-13.7258	95.5206			
O=C(Nc1ccccc1C(=O)O)c1cccc(Oc2ccccc2)c1 [MMV1579784]	0.07516	11.2094	41.5815			
Nc1nc(Nc2ccc3nc(-c4ccc(F)cc4)cc(N)c3c2)cc(-c2ccccc2)n1 [MMV1593541]	4.554	-2.81	23.9637			
CC(C)N(c1cc(-c2ccccc2)sc1C(=O)O)C(=O)[C@H]1CC[C@H](C)CC1 [MMV1634388]	1.026	40.2559	13.9085	0.59	0.29	128.08
OCCCCn1cnc2c(O)nc(NCc3ccc(Cl)c(Cl)c3)nc21 [MMV1593542]	-1.805	-12.5973	68.6346			
CCCCc1ccc(C(=O)O)nc1 [MMV001726]	-0.06574	-20.229	162.188			
CCN(CC)CCn1c(=N)n(CC(O)COc2ccc(Cl)cc2Cl)c2ccccc21 (stereo not drawn) [MMV000725]	-2.18	-13.7901	72.9764			

SMILES	PGI d5 (relative PGI release) [1, 3] [%]	PGI d12 (relative PGI release) [1, 3] [%]	Viability d12 (relative viability) [2, 4] [%]	PGI d5 (relative PGI release) [1, 5] [%]	PGI d12 (relative PGI release) [1, 5] [%]	Viability d12 (relative viability) [2, 5] [%]
CC(C)Nc1nc2cc(Cl)c(Cl)cc2n1[C@H]1O[C@@H](CO)[C@H](O)[C@@H]1O [MMV1593521]	1.092	-0.5297	80.7959			
CCCC(=O)OCCc1ccccc1 [MMV1578899]	-0.4977	-12.5447	64.2092			
CC[N+]1(C/C2=C/CCCCCC2)CCC(NC(=O)C2c3cc(Cl)ccc3Oc3ccc(Cl)cc32)CC1.[I-] (stereo not drawn) [MMV1580489]	1.482	-2.113	73.6372			
Cl.NC1(C(=O)O)CCP(=O)(O)CC1 (stereo not drawn) [MMV1593538]	-1.639	-13.1352	39.7446			
O=C(Nc1ccccc1)N(Cc1cc(Br)ccc1O)c1ccc(F)cc1 [MMV1581552]	-0.185	-25.2603	81.6601			
Nc1nnc(-c2ccc(Cl)cc2)s1 [MMV046261]	0.5147	3.499	11.5226			
O=c1ccc2ncc(=O)n3c2n1CC3CN1CCC(NCc2cc3c(cn2)OCCC3)CC1 (stereo not drawn) [MMV1578568]	-2.295	-8.489	53.1876			
C(=C\c1nc2ccccc2[nH]1)/c1ccc2c(c1)OCO2 [MMV1582495]	-1.5423	-10.1943	98.8605			
CCC(CC)[C@H](NC(C)=O)[C@@H]1[C@H](O)[C@@H](C(=O)O)C[C@H]1NC(=N)N [MMV1593511]	0.2364	-10.4107	73.923			
CC(C)n1cnc2c(NCc3ccccc3)nc(NCc3ccccc3)nc21 [MMV1579780]	13.6684	58.0803	34.6202			
Cc1cc(C)n(O)c(=O)c1 [MMV1782389]	-2.677	-25.4049	156.473			
CC(C)(C)OC(=O)NCc1ccc(C(=O)N[C@H]2CCOC2=O)cc1 [MMV1581547]	-1.162	45.6301	30.2259			
NCC(=O)Nc1ccc(-n2nc(C(F)(F)F)cc2-c2ccc3c(ccc4ccccc43)c2)cc1 [MMV1578560]	3.295	35.9177	75.9823			
CCc1ccc(C2CC(C(F)(F)F)n3ncc(C(=O)NCc4ccc(OC)cc4)c3N2)cc1 (stereo not drawn) [MMV831201]	-0.786	-0.2956	124.843			
CCCCN1C[C@H](O)[C@@H](O)[C@H](O)[C@H]1CO [MMV1782098]	-0.9049	-0.1991	82.1234			
Nc1ccc2oc(=O)ccc2c1I [MMV1581378]	0.09331	-19.2105	90.9948			
CCCCCCCCCN1C[C@@H](O)[C@H](O)[C@@H](O)[C@@H]1CO [MMV1593513]	-0.861	-3.193	80.9399			
CCN1CCN(Cc2nc3ccc([N+](=O)[O-])cc3c(=O)n2-c2ccccc2F)CC1 [MMV275100]	0.006823	-0.1551	107.175			
